Experimental data from patent US6576624B1, “Use of dopamine receptor antagonists in palliative tumor therapy” (Zentaris AG, priority 1996, dated 2003).
Like-named read-outs stand apart in the source and are kept apart here. Marks after values point to notes of the source that are not given here.

Experiments:
[1] = for Changes of body weight, D-21266(4 × 46.4 mg/kg p.o.) AUC, day 7 / Changes of body weight, D-18506(4 × 68.1 mg/kg p.o.) AUC, day 7 / Changes of body weight, Control AUC, day 7: AUC to day 7; for Changes of body weight, D-21266(4 × 46.4 mg/kg p.o.) AUC, day 7 / Changes of body weight, D-21266(4 × 46.4 mg/kg p.o.) AUC, day 11: compared with D-21266 alone (D-21266 4 × 46.4 mg/kg p.o. alone); for Changes of body weight, D-21266(4 × 46.4 mg/kg p.o.) AUC, day 7 / Changes of body weight, D-21266(4 × 46.4 mg/kg p.o.) AUC, day 11 / Changes of body weight, D-18506(4 × 68.1 mg/kg p.o.) AUC, day 7 / Changes of body weight, D-18506(4 × 68.1 mg/kg p.o.) AUC, day 11: same i.p. doses as c1; for Changes of body weight, D-21266(4 × 46.4 mg/kg p.o.) AUC, day 11 / Changes of body weight, D-18506(4 × 68.1 mg/kg p.o.) AUC, day 11 / Changes of body weight, Control AUC, day 11: AUC to day 11; for Effect on body weight development of animals treated with octadecyl(1,1-dimethylpiperidinio-4-yl)phosphate: simultaneous administration with D-21266, normal rats, FIGS. 7 and 8, Table 2; for Changes of body weight, D-18506(4 × 68.1 mg/kg p.o.) AUC, day 7 / Changes of body weight, D-18506(4 × 68.1 mg/kg p.o.) AUC, day 11: compared with D-18506 alone (D-18506 4 × 68.1 mg/kg p.o. alone); for Changes of body weight, Control AUC, day 7 / Changes of body weight, Control AUC, day 11: asterisks = comparison with control group
Excerpt: Comparative studies with respect to body weight changes in healthy and tumor-bearing rats were investigated after administration of miltefosine or octadecyl(1,1-dimethylpiperidinio-4-yl)phosphate alone and in combination with various appetite-stimulating compounds.

[2] = system: DMBA-induced breast tumor; assay: Anti-tumor action on DMBA-induced breast tumor of rats; assay type: in vivo, rat; details: rats with DMBA-induced breast tumor; FIGS. 11-12
[3] = cancer patients; Eur. J. Cancer 29A, 208-209, 1993; cited from earlier work
[4] = Table 1, rat, i.p. mg/kg: Domperidone 0.1, Pimozide 0.2, Metoclopramide 0.2, Cyproheptadine 2.5, combinations with D-18506 4 × 68.1 mg/kg p.o.
[5] = Table 2, rat, i.p. mg/kg: Pimozide 0.1, Cyproheptadine 2.5, Metoclopramide 0.2, Domperidone 0.1, combinations with D-21266 4 × 46.4 mg/kg p.o.

In the case of `CCCCCCCCCCCCCCCCCCOP(=O)([O-])OC1CC[N+](C)(C)CC1` [D-21266, octadecyl(1,1-dimethylpiperidinio-4-yl)phosphate], the “Changes of body weight, D-21266(4 × 46.4 mg/kg p.o.) AUC, day 7” value ([1]; Table 2, rat) is reported as 10.6, the “Changes of body weight, D-21266(4 × 46.4 mg/kg p.o.) AUC, day 11” value ([1]; Table 2, rat) is reported as 37.1 and the “Body weight development after octadecyl(1,1-dimethylpiperidinio-4-yl)phosphate alone” value ([1]; rat, in vivo) is reported as “increase in weight less than the control animals”.
For `O=c1[nH]c2ccccc2n1CCCN1CCC(n2c(=O)[nH]c3cc(Cl)ccc32)CC1` [Domperidone, domperidone], the “Effect on body weight development of animals treated with octadecyl(1,1-dimethylpiperidinio-4-yl)phosphate” value (shortened to “Effect on body weight development”) [1] was “more than compensated”, the “Body weight development, alone and in combination with octadecyl(1,1-dimethylpiperidinio-4-yl)phosphate” value ([1]; tumor-bearing rats, FIGS. 9-10) was “increase the body weight development” and the “Effect on anti-tumor action of octadecyl(1,1-dimethylpiperidinio-4-yl)phosphate” value [2] was “without affecting the anti-tumor action”.
In the case of `CCCCCCCCCCCCCCCCOP(=O)([O-])OCC[N+](C)(C)C` [D-18506, miltefosine], the “Changes of body weight, D-18506(4 × 68.1 mg/kg p.o.) AUC, day 7” value ([1]; Table 1, rat) is reported as −17.9, the “Changes of body weight, D-18506(4 × 68.1 mg/kg p.o.) AUC, day 11” value ([1]; Table 1, rat) is reported as −23.5 and the “Body weight change on administration of miltefosine alone” value ([1]; rat, in vivo) is reported as “clear loss of weight”. For the same molecule, the “Side effects in patients treated with miltefosine” value [3] was “marked loss of body weight”.
For `CCN(CC)CCNC(=O)c1cc(Cl)c(N)cc1OC` [Metoclopramide, metoclopramide], the “Changes of body weight, Control AUC, day 7” value (“Changes … Control AUC, day 7” for short) [1, 4] was 11.5, the “Changes of body weight, D-18506(4 × 68.1 mg/kg p.o.) AUC, day 7” value ([1]; Table 1, rat) was 11.5** and the “Changes of body weight, Control AUC, day 11” value (“Changes … Control AUC, day 11” below) [1, 4] was 30.5. For the same molecule, the “Changes of body weight, D-18506(4 × 68.1 mg/kg p.o.) AUC, day 11” value ([1]; Table 1, rat) was 30.5**, the “Changes … Control AUC, day 7” value [1, 5] was 19.2 and the “Changes of body weight, D-21266(4 × 46.4 mg/kg p.o.) AUC, day 7” value ([1]; Table 2, rat) was 19.2. For the same molecule, the “Changes … Control AUC, day 11” value [1, 5] was 49.4, the “Changes of body weight, D-21266(4 × 46.4 mg/kg p.o.) AUC, day 11” value ([1]; Table 2, rat) was 49.4 and the “Effect on body weight development” value [1] was “no significant effect”. The “Effect on the loss of weight caused by miltefosine” value ([1]; simultaneous administration with miltefosine, healthy and tumor-bearing rats, domperidone or pimozide 5×0.1 mg/kg i.p.) was “does not lead to any positive effect”.
In the case of `CN1CCC(=C2c3ccccc3C=Cc3ccccc32)CC1` [Cyproheptadine, cyproheptadine], the “Changes … Control AUC, day 7” value [1, 4] is reported as 0.8, the “Changes of body weight, D-18506(4 × 68.1 mg/kg p.o.) AUC, day 7” value ([1]; Table 1, rat) is reported as 0.8 and the “Changes … Control AUC, day 11” value [1, 4] is reported as 15.5. The “Changes of body weight, D-18506(4 × 68.1 mg/kg p.o.) AUC, day 11” value ([1]; Table 1, rat) was 15.5, the “Changes … Control AUC, day 7” value [1, 5] was 1.5 and the “Changes of body weight, D-21266(4 × 46.4 mg/kg p.o.) AUC, day 7” value ([1]; Table 2, rat) was 1.5. The “Changes … Control AUC, day 11” value [1, 5] was 20.6, the “Changes of body weight, D-21266(4 × 46.4 mg/kg p.o.) AUC, day 11” value ([1]; Table 2, rat) was 20.6 and the “Effect on body weight development” value [1] was “no significant effect”.
In the case of `O=c1[nH]c2ccccc2n1C1CCN(CCCC(c2ccc(F)cc2)c2ccc(F)cc2)CC1` [Pimozide, pimozide], the “Changes … Control AUC, day 7” value [1, 4] is reported as 30.4**, the “Changes of body weight, D-18506(4 × 68.1 mg/kg p.o.) AUC, day 7” value ([1]; Table 1, rat) is reported as 30.4** and the “Changes … Control AUC, day 11” value [1, 4] is reported as 69.8**. The “Changes of body weight, D-18506(4 × 68.1 mg/kg p.o.) AUC, day 11” value ([1]; Table 1, rat) was 69.8**, the “Changes … Control AUC, day 7” value [1, 5] was 31.2** and the “Changes of body weight, D-21266(4 × 46.4 mg/kg p.o.) AUC, day 7” value ([1]; Table 2, rat) was 31.2**. For the same molecule, the “Changes … Control AUC, day 11” value [1, 5] was 67.5** and the “Changes of body weight, D-21266(4 × 46.4 mg/kg p.o.) AUC, day 11” value ([1]; Table 2, rat) was 67.5**.
